Measured values published in paper PMC10598265, “Effects of the novel selective κ-opioid receptor agonist NP-5497-KA on morphine-induced reward-related behaviors” (Scientific Reports, 2023).

Tests used:
MOP (μ-opioid receptor) = target: T1, MOP (μ-opioid receptor) (Homo sapiens, UniProt P35372); assay: TR-FRET cAMP assay (LANCE Ultra), inhibition of forskolin-stimulated cAMP; assay type: cell-based
T1 construct: gene OPRM1; full-length receptor stably expressed in CHO-K1 cells (ChanTest)
From the text: TR-FRET cAMP assay (LANCE Ultra), inhibition of forskolin-stimulated cAMP on MOP (μ-opioid receptor)

DOP (δ-opioid receptor) = target: T2, DOP (δ-opioid receptor) (Homo sapiens, UniProt P41143); assay: as above; assay type: cell-based
T2 construct: gene OPRD1; full-length receptor stably expressed in CHO-K1 cells (ChanTest)
From the text: TR-FRET cAMP assay (LANCE Ultra), inhibition of forskolin-stimulated cAMP on DOP (δ-opioid receptor)

T2 sequence (P41143 whole entry): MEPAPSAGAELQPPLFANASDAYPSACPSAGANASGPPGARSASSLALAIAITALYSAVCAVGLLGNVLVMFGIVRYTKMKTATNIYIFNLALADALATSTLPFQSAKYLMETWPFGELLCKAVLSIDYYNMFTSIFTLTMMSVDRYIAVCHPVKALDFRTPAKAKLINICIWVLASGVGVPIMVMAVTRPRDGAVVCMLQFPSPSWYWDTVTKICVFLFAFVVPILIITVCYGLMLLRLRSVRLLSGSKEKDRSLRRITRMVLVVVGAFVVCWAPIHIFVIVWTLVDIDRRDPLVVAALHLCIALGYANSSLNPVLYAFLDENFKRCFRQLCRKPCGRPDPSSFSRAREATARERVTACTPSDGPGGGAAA
T1 sequence (P35372 whole entry): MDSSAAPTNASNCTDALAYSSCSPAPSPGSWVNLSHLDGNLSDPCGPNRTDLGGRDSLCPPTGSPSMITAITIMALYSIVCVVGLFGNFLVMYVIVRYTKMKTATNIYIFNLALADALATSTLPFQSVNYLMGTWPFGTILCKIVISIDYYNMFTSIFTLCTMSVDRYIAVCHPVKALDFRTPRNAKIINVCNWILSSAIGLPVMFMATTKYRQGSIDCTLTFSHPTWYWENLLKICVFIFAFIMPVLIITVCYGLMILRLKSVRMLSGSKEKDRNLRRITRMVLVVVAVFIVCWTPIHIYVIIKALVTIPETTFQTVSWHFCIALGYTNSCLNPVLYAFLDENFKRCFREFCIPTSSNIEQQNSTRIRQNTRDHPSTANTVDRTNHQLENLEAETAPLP

CN(C(=O)/C=C/c1ccoc1)[C@@H]1CC[C@@]2(O)[C@H]3Cc4ccc(O)c5c4[C@@]2(CCN3CC2CC2)[C@H]1O5 [Nalfurafine]
EC50 (MOP (μ-opioid receptor)): 7.8 nM
EC50 (DOP (δ-opioid receptor)): 132 nM
